Measured values reported in patent US7026354B2 (priority 2001, dated 2006).
“And” between values parts separate entries of the source, which are not always exact repeats. Equal entries are not always repeated. Where two headings read alike, the source gives them in different places.

How the values were obtained:
Assay type in all cases: cell-based
[1] = system: S. aureus (MN8)
[2] = system: S. aureus (MN8); remark: listed apart in the source
[3] = system: S. aureus strain RN 6390
[4] = system: S. aureus FRI-1169
[5] = system: S. aureus FRI-1187
[6] = system: S. aureus FRI-1187; conditions: for ELISA: TSST-1 ng/OD unit / Reduction of Toxin %: Table 5, FRI-1187
[7] = system: S. aureus FRI-1169; remark: listed apart in the source
[8] = Table 1, 0.5% test compound, 24 h
[9] = Table 1, 0.5% test compound, vs control
[10] = Table 6, Cetiol 1414E 0, PEA 0.05%
[11] = Table 6, Cetiol 1414E 0, PEA 0.15%
[12] = Table 6, Cetiol 1414E 0, PEA 0.3%
[13] = Table 6, Cetiol 1414E 0, PEA 0.5%
[14] = Table 10, Cetiol 2.5 mM, PABA 0%
[15] = Table 10, Cetiol 10 mM, PABA 0%

## O=C(O)c1ccccc1O [2-hydroxybenzoic acid]
[1]
  CFU/mL: 1.48E+09 CFU/mL
  Optical Density: 0.682
[2]; Table 2, 0.2% test compound
  ELISA: TSST-1 ng/OD unit: 193 ng/OD unit

## Nc1ccc(C(=O)O)cc1 [p-aminobenzoic acid]
[1]
  CFU/mL: 1.1E+09 CFU/mL and 1.53E+09 CFU/mL and 1.85E+09 CFU/mL and 1.79E+09 CFU/mL and 1.15E+09 CFU/mL
  OD: 0.546 and 0.558 and 0.599 and 0.589
  Optical Density: 0.618
[2]; Table 2, 0.2% test compound
  ELISA: TSST-1 ng/OD unit: 317 ng/OD unit
[2]; Table 10, Cetiol 0 mM, PABA 0.05%
  ng TSST-1/OD: 5670 ng/OD
[2]; Table 10, Cetiol 0 mM, PABA 0.09%
  ng TSST-1/OD: 3389 ng/OD
[2]; Table 10, Cetiol 0 mM, PABA 0.19%
  ng TSST-1/OD: 1975 ng/OD
[2]; Table 10, Cetiol 0 mM, PABA 0.38%
  ng TSST-1/OD: 1039 ng/OD

## NC(=O)c1ccccc1O [2-hydroxybenzamide]
[1]; 24 h
  CFU/mL: 9.0E+07 CFU/mL
[1]; 24 h, 600 nm
  Optical Density: 0.549
[2]; Table 1, 1.0% test compound, 24 h
  ELISA: TSST-1 ng/OD unit: 65 ng/OD unit
[2]; Table 1, 1.0% test compound, vs control
  Reduction of Toxin %: 95%

## COC(=O)c1ccc(O)cc1 [p-hydroxybenzoic acid, methyl ester]
[1]
  CFU/mL: >1.5E+08 CFU/mL
  Optical Density: 0.356
[2]; Table 2, 0.2% test compound
  ELISA: TSST-1 ng/OD unit: 506 ng/OD unit
[3]
  production of alpha toxin: significantly reduced
[3]; Table 8, 0.1% test compound
  % Toxin Inhibition: 70%
[3]; Table 8, 0.1% test compound, reciprocal of the dilution giving 50% lysis
  Hemolytic Endpoint 50% lysis: 79
[3]; Table 8, 0.2% test compound
  % Toxin Inhibition: 94%
[3]; Table 8, 0.2% test compound, reciprocal of the dilution giving 50% lysis
  Hemolytic Endpoint 50% lysis: 16

## OCCc1ccccc1 [Phenylethyl alcohol]
[4]
  Reduction of Toxin %: 99% and 95%
[5]
  Optical Density: 1.296 and 1.244
  effect on the growth of S. aureus cells: minimal, if any, effect on the growth
[1]
  Log CFU/mL: 8.6 Log CFU/mL and 8.7 Log CFU/mL and 8.5 Log CFU/mL
  OD: 0.712 and 0.730 and 0.758 and 0.721
  Optical Density: 0.542 and 0.551 and 0.476 and 0.554
[6]
  reduction of the amount of exotoxin production: significantly reduced
[6]; 0.25% test compound
  ELISA: TSST-1 ng/OD unit: 1 ng/OD unit
  Reduction of Toxin %: 98%
[6]; 0.5% test compound
  ELISA: TSST-1 ng/OD unit: none detected
  Reduction of Toxin %: 100%
[2]
  % Reduction: 57% and 80% and 93% and 98%
[2]; [8]
  ELISA: TSST-1 ng/OD unit: 60 ng/OD unit
[2]; [9]
  Reduction of Toxin %: 96%
[2]; Table 2, 0.5% test compound
  ELISA: TSST-1 ng/OD unit: 68 ng/OD unit
[2]; Table 3, 0.5% test compound
  ELISA: TSST-1 ng/OD unit: 46 ng/OD unit
[2]; Table 4, 0.5% test compound
  ELISA: TSST-1 ng/OD unit: 25 ng/OD unit
[2]; [10]
  Reduction of Toxin %: 32%
  ng TSST-1 per CFU: 266 ng per CFU
  ng TSST-1 per mL: 826 ng per mL
[2]; [11]
  Reduction of Toxin %: 67%
  ng TSST-1 per CFU: 129 ng per CFU
  ng TSST-1 per mL: 561 ng per mL
[2]; [12]
  Reduction of Toxin %: 90%
  ng TSST-1 per CFU: 39 ng per CFU
  ng TSST-1 per mL: 201 ng per mL
[2]; [13]
  Reduction of Toxin %: 93%
  ng TSST-1 per CFU: 27 ng per CFU
  ng TSST-1 per mL: 106 ng per mL
[2]; Table 9, Glucopon 0 mM, PEA 0.05%
  ng TSST-1/OD: 323 ng/OD
[2]; Table 9, Glucopon 0 mM, PEA 0.15%
  ng TSST-1/OD: 152 ng/OD
[2]; Table 9, Glucopon 0 mM, PEA 0.3%
  ng TSST-1/OD: 54 ng/OD
[2]; Table 9, Glucopon 0 mM, PEA 0.50%
  ng TSST-1/OD: 13 ng/OD
[7]
  Optical Density: 1.263 and 1.208
  effect on the growth of S. aureus cells: minimal, if any, effect on the growth
[3]
  Hemolytic Endpoint 50% lysis: None Detected
  production of alpha toxin: significantly reduced
[3]; Table 7, 0.3% test compound
  % Toxin Inhibition: 97%
[3]; Table 7, 0.3% test compound, reciprocal of the dilution giving 50% lysis
  Hemolytic Endpoint 50% lysis: 3
[3]; Table 7, 0.4% test compound
  % Toxin Inhibition: 100%

## O=C(O)c1cc(O)c(O)c(O)c1 [Gallic acid]
[1]
  CFU/mL: 1.2E+09 CFU/mL
  Optical Density: 0.492
[2]; Table 3, 0.5% test compound
  ELISA: TSST-1 ng/OD unit: 63 ng/OD unit

## O=C(O)/C=C/c1ccccc1 [Trans-cinnamic acid]
[1]
  CFU/mL: 1.7E+09 CFU/mL
  Optical Density: 0.549
[2]; Table 3, 0.5% test compound
  ELISA: TSST-1 ng/OD unit: 436 ng/OD unit

## CC(=O)Nc1ccc(O)cc1 [4-Acetamidophenol]
[1]
  CFU/mL: 2.4E+09 CFU/mL
  Optical Density: 0.629
[2]; Table 4, 0.5% test compound
  ELISA: TSST-1 ng/OD unit: 230 ng/OD unit

## OCc1ccccc1 [Benzyl alcohol]
[1]; 24 h
  CFU/mL: 1.8E+08 CFU/mL
[1]; 24 h, 600 nm
  Optical Density: 0.792
[2]; [8]
  ELISA: TSST-1 ng/OD unit: 131 ng/OD unit
[2]; [9]
  Reduction of Toxin %: 91%

## CC(=O)N[C@@H](Cc1ccc(O)cc1)C(=O)O [Acetyl tyrosine]
[1]
  CFU/mL: 1.7E+09 CFU/mL
  Optical Density: 0.549
[2]; Table 3, 0.5% test compound
  ELISA: TSST-1 ng/OD unit: 436 ng/OD unit

## myreth-3 myristate [Cetiol 1414E]
[1]
  Log CFU/mL: 8.6 Log CFU/mL and 8.5 Log CFU/mL
  OD: 0.881 and 0.976 and 0.637
[2]; Table 6, Cetiol 1414E 2.5 mM, PEA 0
  ng TSST-1 per CFU: 239 ng per CFU
[2]; Table 6, Cetiol 1414E 5 mM, PEA 0
  ng TSST-1 per CFU: 172 ng per CFU
[2]; Table 6, Cetiol 1414E 10 mM, PEA 0
  ng TSST-1 per CFU: 61 ng per CFU
[2]; [14]
  % Reduction: 31%
  ng TSST-1/OD: 3367 ng/OD
[2]; Table 10, Cetiol 5 mM, PABA 0%
  % Reduction: 51%
  ng TSST-1/OD: 2419 ng/OD
[2]; [15]
  % Reduction: 53%
  ng TSST-1/OD: 2286 ng/OD
